One data set concerns the target SOX18 (Mus musculus (Mouse), UniProt P43680). Kind of data set: Cell-based luciferase SOX18-dependent transactivation (Vcam1 promoter) in COS-7. Particulars: COS7, 24 h, read-out: In vitro efficacy in cell IC50 ± SD COS7 (Luc). The procedure: Monkey kidney fibroblast-like cells (COS-7) were cultured at 37° C., 5% CO2 in DMEM (Life technologies, 11995) with FBS, sodium pyruvate, L-glutamine, penicillin, streptomycin, non-essential amino acids and HEPES. Cells were grown in 96-well plates to 80% confluency, and transfected with mouse plasmids pGL2 Vcam 1 promoter construct (VC1889) and pSG5 Sox18, using X-tremeGENE 9 DNA transfection reagent (Roche, 06365787001) (Hosking et al., 2004, Duong et al., 2014). After 4-6 h transfection, cells were incubated with compounds in 0.5% FBS medium for another 24 h, before lysis and luciferase assay (Perkin Elmer, 6016711).

In a further data set the target is full-length mouse SOX18 (Mus musculus (Mouse), UniProt P43680). Kind of data set: FP DNA-binding competition assay, full-length SOX18. Conditions: full-length mouse SOX18, Prox1-DNA probe, read-out: FP IC50 ± SD. On the procedure: Full-length mouse SOX18. A N-terminally tagged mouse HIS-GST-SOX18 was recombinantly expressed in Sf9 cells, purified on GST resin (GE Healthcare Life Sciences, Sweden) and eluted in Tris buffer (50 mM Tris, 500 mM NaCl, 10 mM reduced glutathione, pH 8.0). cDNA clone of mouse Sox18 was PCR amplified and cloned into the pOPIN-GST vector, to generate N-terminally tagged HIS-GST-SOX18. A sequence verified construct was co-transfected with flashBACULTRA (Oxford Expression Technologies, Oxford, United Kingdom) baculovirus DNA onto Spodoptera frugiperda Sf9 cells to obtain recombinantly expressed HIS-GST-SOX18. High Five cells (BTI-TN-5B1-4) in Sf-900™ II serum-free medium were infected at cell density of 1.5×10^6 cells/mL with a multiplicity of infection (MOI) of 5 PFU/cell, and incubated at 21° C. for 144 h before harvest. The cell pellet from 100 mL of expression culture was resuspended in 30 mL of phosphate lysis buffer (50 mM sodium phosphate, 500 mM sodium chloride, 1% Triton X-100, 2 mM magnesium chloride, one tablet of cOmplete Protease Inhibitor Cocktail, pH 7.5) and sonicated on ice for 20 s. The cell lysate was centrifuged at 17,000×g for 40 min at 4° C. Supernatant was incubated with Benzonase Nuclease (Merck Millipore) for 1 h at room temperature for DNA degradation, before being mixed with 500 μL GST resin (GE Healthcare Life Sciences, Sweden) and incubated on a rotating wheel at room temperature for 1 h. The sample was centrifuged at 500×g for 1 min to remove unbound protein in the supernatant. The resin was further washed with 50 resin volumes (RV) wash buffer (50 mM sodium phosphate, 500 mM NaCl, pH 7.5), with unbound protein removed by centrifugation as above. Bound protein was eluted from the resin with 3×1 RV elution buffer (50 mM Tris, 500 mM NaCl, 10 mM reduced glutathione, pH 8.0), collecting the supernatant by centrifugation as above.
Sequence of full-length mouse SOX18 (P43680 whole entry): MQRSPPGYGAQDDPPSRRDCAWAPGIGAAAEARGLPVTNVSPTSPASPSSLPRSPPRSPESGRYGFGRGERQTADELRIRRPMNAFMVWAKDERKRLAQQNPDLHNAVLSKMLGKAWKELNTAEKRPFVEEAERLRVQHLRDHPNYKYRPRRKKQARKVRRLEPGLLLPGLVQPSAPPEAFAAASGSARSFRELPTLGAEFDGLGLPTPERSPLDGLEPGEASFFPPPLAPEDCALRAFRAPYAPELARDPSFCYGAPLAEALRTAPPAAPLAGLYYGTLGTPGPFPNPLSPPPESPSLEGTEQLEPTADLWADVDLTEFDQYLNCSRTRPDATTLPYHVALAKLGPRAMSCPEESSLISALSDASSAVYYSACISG
The DNA-binding competition assay was performed in black 384-well plates, with mouse full length SOX18, or SOX-HMG fragments. All experiments were performed using a fluorescently-labelled Prox1-DNA element. Controls consisted of free labelled DNA (low FP milli-Polarization index, mP), labelled DNA in presence of protein (negative control, high mP), and labelled DNA and protein in presence of competing excess of unlabelled DNA (positive control, low mP)
The DNA-binding competition assay was performed in 25 uL, in black 384-well plates, using either 30 mM HEPES (N-2-Hydroxyethylpiperazine-N′-2-Ethanesulfonic Acid) (pH 7.5, with 100 mM KCl, 40 mM NaCl, 10 mM NH4OAc, […], 2 mM MgCl2, 0.5 mM EDTA, 0.01% NP-40) for mouse full length SOX18, or Tris-NaCl (10 mM Tris pH 8.0 and 100 mM NaCl) for SOX-HMG fragments. All experiments were performed using a 40 bp double-stranded Prox1-DNA element with 5′ fluorescein amidite (FAM) label (Sigma Proligo or InVitrogen). Optimum binding levels were obtained at 200 nM of mouse full length SOX18 and 60 nM of SOX-HMG fragment, in presence of 5 nM labelled DNA. Controls consisted of free labelled DNA (low FP milli-Polarization index, mP), labelled DNA in presence of protein (negative control, high mP), and labelled DNA and protein in presence of 400 time competing excess of unlabelled DNA (positive control, low mP). Depending on compound, final DMSO concentrations ranged from 2 to 3.33% v/v. After mixing protein, DNA probe and compound, plates were sealed and briskly agitated in the dark for 5 minutes at room temperature, 10 minutes at 37° C., and 30 minutes at room temperature, before reading fluorescence polarization on a Tecan M1000Pro (λexc=485 nm, λem=525 nm). All experiments were performed in triplicates.

Data set [1] can be described thus: Cytotoxicity assay (Alamar blue), COS-7. Format: cell-based, Monkey. Conditions: chlorocebus aethiops, COS-7 cells; COS7, 24 h; read-out: In vitro cytotoxicity CC50 ± SD COS7. On the procedure: Cell toxicity was determined using Alamar blue, as previously described (McMillian et al., 2002). COS-7 cells were seeded as 7000 cells per well in black wall clear bottom 96-well plates in DMEM medium (Life Technologies Australia) with 10% FBS. HepG2 and HEK293 cell lines, from ATCC, were seeded as 5000 cells per well in black wall clear bottom 384-well cell culture plates in DMEM with 1% FBS. Cells were cultured for 24 h at 37° C., 5% CO2. A serial dilution of compounds was added, with a final DMSO concentration adjusted to 0.5% v/v. Cells were incubated for another 24 h. 1 Triton X-100 was used as negative control, and 0.5% DMSO as positive control. 5 μM Alamar blue was added to each well and fluorescence was measured (λexc=560 nm, λem=590 nm) after 2 h incubation at 37° C. Data were analysed using Prism software.
For orientation: Resazurin is reduced to fluorescent resorufin, in cell work by metabolically active cells.

Data set [2] concerns 4T1.2 mammary carcinoma cells. Kind of data set: 4T1.2 mammary carcinoma mouse model of breast cancer metastasis. Format: in vivo, BALB/c mice. Conditions: 25 mg/kg/day oral, day 3 to day 12.

Sequence of SOX18 (P43680 whole entry): as above

Take `O=C(O)c1cccnc1Nc1cccc(C(F)(F)F)c1` [Nifumic acid, niflumic acid, reference compound]: the IC50 (in general, the midpoint of a concentration-inhibition curve) at SOX18 worked out at 50.5 ± 7.6 µM; on full-length mouse SOX18, 375 ± 84 µM. Moreover, the CC50 (as a rule, the concentration that lowers cell viability or growth by half) at 24 h in data set [1] is greater than 200 µM.

For the molecule `CC(=O)Oc1ccccc1C(=O)O` [Aspirin], the “median latency (survival)” value in data set [2] amounted to 34 days.

As for `Cc1ccc(Cl)c(Nc2ccccc2C(=O)O)c1Cl` [Meclofenamic acid, reference compound], on full-length mouse SOX18, the IC50 was 163 ± 17.7 µM. In data set [1], the CC50 at 24 h was determined as 16 ± 0.3 µM.

(Values after patent US20240002326A1, “COMPOUNDS AND USE THEREOF IN METHODS OF TREATMENT” (The University of Queensland, priority 2016, published 2024).)
